According to patent US5885834A, “Antisense oligodeoxynucleotide against phosphodiesterase” (priority 1997, dated 1999):
Entries after “also recorded” stand apart in the source; their conditions may differ.

How the values were obtained:
[1] = system: PDE1 activity in RPMI 8392 cells; assay: CaM-stimulated PDE (PDE1) activity in cells after ODN treatment; assay type: cell-based, human; settings: for PDE1 (CaM-stimulated PDE) activity: 3 days
Experimental: Cells were grown to a density of about 10^6 /ml, collected by centrifugation (1200×g, 10 min), resuspended in I ml of homogenization buffer containing 40 mM Tris/HCl (pH 7.5), 1 mM EDTA, 1 mM DTT, 35 μg/ml phenylmethylsulfonyl fluoride, 15 mM benzamidine, 1 μg/ml leupeptin, 1 μg/ml antipain, 1 μg/ml pepstatin, and 1 μg/ml aprotinin, homogenized with 20 strokes of a Dounce glass-on-glasshomogenizer and assayed for PDE activity, using 1 μM cAMP as substrate, as described previously. Data points represent the means of 2 to 10 separate determinations. […] Control activity was 1.66±0.14 pmol/min/10^6 cells (mean±S.E.M.; n=8) in the absence and 4.80±0.42 pmol/min/10^6 cells (mean±S.E.M.; n=10) in the presence of Ca^2+ and calmodulin.
RPMI 8392 cells were grown and treated with AS and NS ODN as described in the legend to FIG. 2. Cells were then collected at daily intervals and assayed for PDE activity as described in FIG. 10. Results represent the mean±the range of duplicate determinations. Control activities (pmol/min/10^6 cells) were 1.17, 1.34, and 1.50 in the absence, and 3.83, 4.34, and 3.79 in the presence of Ca^2+ and calmodulin at days 1, 2, and 3, respectively.

[2] = system: PDE1B1 mRNA in RPMI 8392 cells; assay: Quantitative RT-PCR of PDE1B1 mRNA after ODN treatment; assay type: cell-based, human; settings: 10 or 30 μM ODN
Excerpt: This is usually determined by looking at the reduction or disappearance of the protein product, either by selective measurement of an enzymatic activity of the protein, where applicable, or by immunoquantitation with specific antibodies by Western blot or ELISA techniques. Also, when PO or PS ODNs are used, which are capable of activating RNase H activity, it is expected that the mRNA of the targeted gene would be down regulated, most of the time, along with the protein product, and this can be readily tested by Northern blot analysis or PCR techniques. Using quantitative RT-PCR with primers specific for PDE1B1, we examined the RPMI 8392 cells for the presence of PDE1B1 mRNA. […] NS ODN, at these concentrations, had no effect on the expression of PDE1B1 mRNA. […] In this connection, the expression of β-actin is unaffected by cAMP and, therefore, β-actin mRNA levels were used as a control. Another gene that is often also used for control measurements for this purpose is that of glyceraldehyde-3-phosphate dehydrogenase (G3PDH).
HPBL were isolated from a normal human donor and placed in culture with (+PHA) or without (-PHA) phytohemagglutinin for 3 days. Quantitative RT-PCR was performed with 2 μg of HPBL RNA, using reagents and protocol from GIBCO/BRL. Degenerate 23 nt primers were synthesized based on reported sequences for PDE1B1. The sequence of the forward primer (Primer 1) corresponds to nt -34 to -12 and the sequence of the reverse primer (Primer 2) is complementary to nt 277 to 299 of the PDE1B1 cDNA. […]
Using quantitative RT-PCR, the effect of AS ODN and NS ODN on the level of mRNA for PDE1B1 in RPMI 8392 cells was examined. Quantitative RT-PCR was used to determine the relative amounts of β-actin and PDE1B1 mRNAs present in RPMI 8392 cells after 1 and 2 days in culture with 10 μM and 30 μM AS ODN (AS) and NS ODN (NS). […]

| Substance | PDE1 activity ([1]; 30 μM ODN, 2 days) | PDE1 (CaM-stimulated PDE) activity ([1]; 10 or 30 μM ODN) | Level of PDE1B1 mRNA expression ([2]; 1 day) | Level of PDE1B1 mRNA expression ([2]; 2 days) | PDE1 activity ([1]; 10 or 30 μM ODN, time not specified) | Level of PDE1B1 mRNA expression ([2]; 1 and 2 days) |
| --- | --- | --- | --- | --- | --- | --- |
| 5'-GGACAGCTCCATGCTCAG-3' (phosphorothioate, further chemistry not given here) [AS ODN, 18 nt phosphorothioate antisense oligodeoxynucleotide targeted against the translation initiation region of PDE1B1] | noticeably diminished | undetectable; also recorded: disappear completely | diminished | absent; also recorded: almost undetectable |  |  |
| 5'-TACGTGAGGCACCTACGC-3' (phosphorothioate, further chemistry not given here) [NS ODN, control phosphorothioate nonsense ODN, same base composition as the AS ODN in random, scrambled order] |  | relatively unchanged |  |  | little or no effect | no effect |
